Source: the supplement of paper PMC10307832

Tests used:
Experiment in all cases: relative viability (nuclei count vs DMSO), 5 days (fraction); higher = more cells survive
Selisistat = compound: C1CC(C2=C(C1)C3=C(N2)C=CC(=C3)Cl)C(=O)N [Selisistat]
In short: (§1)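 Lung cancer cell lines received five library-drug doses (not always all listed) spaced by √10, pinned on vehicle-anchored 1536-well plates after an overnight stay at 37 °C. Five days later, with no medium change, nuclei were Hoechst-stained, imaged at 4× and counted with MetaXpress. Viability is treated-well nuclei relative to vehicle-well nuclei, as a median across plates. Passing plates had control CV below 25% and at least one doubling.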

Serdemetan = compound: c1ccc2c(CCNc3ccc(Nc4ccncc4)cc3)c[nH]c2c1 [Serdemetan]
In short: as §1

Selisistat + Trametinib = compound: C1CC(C2=C(C1)C3=C(N2)C=CC(=C3)Cl)C(=O)N [Selisistat] + CC(=O)Nc1cccc(-n2c(=O)n(C3CC3)c(=O)c3c(Nc4ccc(I)cc4F)n(C)c(=O)c(C)c32)c1 [Trametinib] (partner 0.02 µM)
In short: (§2)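 For relative viability, nuclei counts in treated wells were divided by those in vehicle wells. Lung cancer cell lines had been pin-tool dosed in 1536-well plates the day after seeding and cultured for 5 days, then fixed and stained in one step (final 0.05% Triton X-100, 1% formaldehyde, 1 ug/ml Hoechst) and imaged at 4×. Doses were one drug alone or a fixed anchor-drug dose plus five library-drug doses (not always all listed) in √10 steps, and values are duplicate-plate medians.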

Serdemetan + Navitoclax = compound: c1ccc2c(CCNc3ccc(Nc4ccncc4)cc3)c[nH]c2c1 [Serdemetan] + CC1(C)CCC(c2ccc(Cl)cc2)=C(CN2CCN(c3ccc(C(=O)NS(=O)(=O)c4ccc(N[C@H](CCN5CCOCC5)CSc5ccccc5)c(S(=O)(=O)C(F)(F)F)c4)cc3)CC2)C1 [Navitoclax] (partner 0.5 µM)
In short: as §2

## EPLC-272H
Selisistat; 0.4 µM
  relative viability: 0.966
Selisistat; 1.265 µM
  relative viability: 1.03
Selisistat; 12.65 µM
  relative viability: 0.931
Selisistat; 40 µM
  relative viability: 1.04
Serdemetan; 0.04 µM
  relative viability: 1.17
Serdemetan; 0.1265 µM
  relative viability: 1.09
Serdemetan; 0.4 µM
  relative viability: 0.897
Serdemetan; 1.265 µM
  relative viability: 0.833
Serdemetan; 4 µM
  relative viability: 0.912
Selisistat + Trametinib; first compound 0.4 µM
  relative viability: 0.294
Selisistat + Trametinib; first compound 1.265 µM
  relative viability: 0.287
Selisistat + Trametinib; first compound 12.65 µM
  relative viability: 0.284
Selisistat + Trametinib; first compound 40 µM
  relative viability: 0.33
Serdemetan + Navitoclax; first compound 0.04 µM
  relative viability: 1.11
Serdemetan + Navitoclax; first compound 0.1265 µM
  relative viability: 1.15
Serdemetan + Navitoclax; first compound 0.4 µM
  relative viability: 0.822
Serdemetan + Navitoclax; first compound 1.265 µM
  relative viability: 0.632
Serdemetan + Navitoclax; first compound 4 µM
  relative viability: 0.691

## NCI-H1915
Selisistat; 0.4 µM
  relative viability: 0.992
Selisistat; 1.265 µM
  relative viability: 1.03
Selisistat; 4 µM
  relative viability: 0.795
Selisistat; 12.65 µM
  relative viability: 0.963
Selisistat; 40 µM
  relative viability: 1
Serdemetan; 0.04 µM
  relative viability: 1
Serdemetan; 0.1265 µM
  relative viability: 1.02
Serdemetan; 0.4 µM
  relative viability: 0.996
Serdemetan; 1.265 µM
  relative viability: 0.819
Serdemetan; 4 µM
  relative viability: 0.948
Selisistat + Trametinib; first compound 0.4 µM
  relative viability: 0.348
Selisistat + Trametinib; first compound 1.265 µM
  relative viability: 0.307
Selisistat + Trametinib; first compound 4 µM
  relative viability: 0.318
Selisistat + Trametinib; first compound 12.65 µM
  relative viability: 0.297
Selisistat + Trametinib; first compound 40 µM
  relative viability: 0.342
Serdemetan + Navitoclax; first compound 0.04 µM
  relative viability: 0.815
Serdemetan + Navitoclax; first compound 0.1265 µM
  relative viability: 0.759
Serdemetan + Navitoclax; first compound 0.4 µM
  relative viability: 0.78
Serdemetan + Navitoclax; first compound 1.265 µM
  relative viability: 0.372
Serdemetan + Navitoclax; first compound 4 µM
  relative viability: 0.687

## NCI-H2405
Selisistat; 0.4 µM
  relative viability: 1.06
Selisistat; 1.265 µM
  relative viability: 0.88
Selisistat; 4 µM
  relative viability: 0.657
Selisistat; 12.65 µM
  relative viability: 0.984
Selisistat; 40 µM
  relative viability: 0.992
Serdemetan; 0.04 µM
  relative viability: 0.99
Serdemetan; 0.1265 µM
  relative viability: 1.01
Serdemetan; 0.4 µM
  relative viability: 0.984
Serdemetan; 1.265 µM
  relative viability: 0.921
Serdemetan; 4 µM
  relative viability: 0.859
Selisistat + Trametinib; first compound 0.4 µM
  relative viability: 0.676
Selisistat + Trametinib; first compound 1.265 µM
  relative viability: 0.602
Selisistat + Trametinib; first compound 12.65 µM
  relative viability: 0.601
Selisistat + Trametinib; first compound 40 µM
  relative viability: 0.682
Serdemetan + Navitoclax; first compound 0.04 µM
  relative viability: 0.813
Serdemetan + Navitoclax; first compound 0.1265 µM
  relative viability: 1.03
Serdemetan + Navitoclax; first compound 0.4 µM
  relative viability: 1.01
Serdemetan + Navitoclax; first compound 1.265 µM
  relative viability: 0.921
Serdemetan + Navitoclax; first compound 4 µM
  relative viability: 0.721

## NCI-H322M
Selisistat; 0.4 µM
  relative viability: 0.98
Selisistat; 1.265 µM
  relative viability: 1.01
Selisistat; 12.65 µM
  relative viability: 0.994
Selisistat; 40 µM
  relative viability: 1.01
Serdemetan; 0.04 µM
  relative viability: 0.9
Serdemetan; 0.1265 µM
  relative viability: 1
Serdemetan; 0.4 µM
  relative viability: 0.901
Serdemetan; 1.265 µM
  relative viability: 0.791
Serdemetan; 4 µM
  relative viability: 0.874
Selisistat + Trametinib; first compound 0.4 µM
  relative viability: 0.483
Selisistat + Trametinib; first compound 1.265 µM
  relative viability: 0.575
Selisistat + Trametinib; first compound 12.65 µM
  relative viability: 0.567
Selisistat + Trametinib; first compound 40 µM
  relative viability: 0.545
Serdemetan + Navitoclax; first compound 0.04 µM
  relative viability: 1.05
Serdemetan + Navitoclax; first compound 0.1265 µM
  relative viability: 1.21
Serdemetan + Navitoclax; first compound 0.4 µM
  relative viability: 1.12
Serdemetan + Navitoclax; first compound 1.265 µM
  relative viability: 1.43
Serdemetan + Navitoclax; first compound 4 µM
  relative viability: 1.06

## NCI-H2170
Selisistat; 0.4 µM
  relative viability: 1.02
Selisistat; 1.265 µM
  relative viability: 0.978
Selisistat; 4 µM
  relative viability: 0.956
Selisistat; 12.65 µM
  relative viability: 1.03
Selisistat; 40 µM
  relative viability: 1.1
Serdemetan; 0.04 µM
  relative viability: 1
Serdemetan; 0.1265 µM
  relative viability: 1.02
Serdemetan; 0.4 µM
  relative viability: 1
Serdemetan; 1.265 µM
  relative viability: 0.972
Serdemetan; 4 µM
  relative viability: 0.985
Selisistat + Trametinib; first compound 0.4 µM
  relative viability: 1.07
Selisistat + Trametinib; first compound 1.265 µM
  relative viability: 0.939
Selisistat + Trametinib; first compound 4 µM
  relative viability: 0.85
Selisistat + Trametinib; first compound 12.65 µM
  relative viability: 0.919
Selisistat + Trametinib; first compound 40 µM
  relative viability: 0.973
Serdemetan + Navitoclax; first compound 0.04 µM
  relative viability: 0.591
Serdemetan + Navitoclax; first compound 0.1265 µM
  relative viability: 0.705
Serdemetan + Navitoclax; first compound 0.4 µM
  relative viability: 0.52
Serdemetan + Navitoclax; first compound 1.265 µM
  relative viability: 0.554
Serdemetan + Navitoclax; first compound 4 µM
  relative viability: 0.601

## NCI-H1395
Selisistat; 0.4 µM
  relative viability: 1.02
Selisistat; 1.265 µM
  relative viability: 0.883
Selisistat; 4 µM
  relative viability: 0.701
Selisistat; 12.65 µM
  relative viability: 0.863
Selisistat; 40 µM
  relative viability: 0.9
Serdemetan; 0.04 µM
  relative viability: 0.869
Serdemetan; 0.1265 µM
  relative viability: 1.02
Serdemetan; 0.4 µM
  relative viability: 0.927
Serdemetan; 1.265 µM
  relative viability: 0.804
Serdemetan; 4 µM
  relative viability: 0.61
Selisistat + Trametinib; first compound 0.4 µM
  relative viability: 1.13
Selisistat + Trametinib; first compound 1.265 µM
  relative viability: 0.939
Selisistat + Trametinib; first compound 12.65 µM
  relative viability: 0.979
Selisistat + Trametinib; first compound 40 µM
  relative viability: 0.917
Serdemetan + Navitoclax; first compound 0.04 µM
  relative viability: 0.976
Serdemetan + Navitoclax; first compound 0.1265 µM
  relative viability: 1.07
Serdemetan + Navitoclax; first compound 0.4 µM
  relative viability: 1.08
Serdemetan + Navitoclax; first compound 1.265 µM
  relative viability: 0.923
Serdemetan + Navitoclax; first compound 4 µM
  relative viability: 0.815

## NCI-H838
Selisistat; 0.4 µM
  relative viability: 1.03
Selisistat; 1.265 µM
  relative viability: 0.958
Selisistat; 4 µM
  relative viability: 0.863
Selisistat; 12.65 µM
  relative viability: 0.96
Selisistat; 40 µM
  relative viability: 0.985
Serdemetan; 0.04 µM
  relative viability: 0.959
Serdemetan; 0.1265 µM
  relative viability: 0.976
Serdemetan; 0.4 µM
  relative viability: 0.98
Serdemetan; 1.265 µM
  relative viability: 0.92
Serdemetan; 4 µM
  relative viability: 1.14
Selisistat + Trametinib; first compound 0.4 µM
  relative viability: 0.592
Selisistat + Trametinib; first compound 1.265 µM
  relative viability: 0.482
Selisistat + Trametinib; first compound 4 µM
  relative viability: 0.511
Selisistat + Trametinib; first compound 12.65 µM
  relative viability: 0.516
Selisistat + Trametinib; first compound 40 µM
  relative viability: 0.507
Serdemetan + Navitoclax; first compound 0.04 µM
  relative viability: 1.11
Serdemetan + Navitoclax; first compound 0.1265 µM
  relative viability: 1.14
Serdemetan + Navitoclax; first compound 0.4 µM
  relative viability: 1.08
Serdemetan + Navitoclax; first compound 1.265 µM
  relative viability: 1.12
Serdemetan + Navitoclax; first compound 4 µM
  relative viability: 1.32

## CAL-12T
Selisistat; 0.4 µM
  relative viability: 0.964
Selisistat; 1.265 µM
  relative viability: 0.987
Selisistat; 4 µM
  relative viability: 0.747
Selisistat; 12.65 µM
  relative viability: 0.881
Selisistat; 40 µM
  relative viability: 1
Serdemetan; 0.04 µM
  relative viability: 0.967
Serdemetan; 0.1265 µM
  relative viability: 1.05
Serdemetan; 0.4 µM
  relative viability: 1.01
Serdemetan; 1.265 µM
  relative viability: 0.932
Serdemetan; 4 µM
  relative viability: 0.927
Selisistat + Trametinib; first compound 0.4 µM
  relative viability: 0.375
Selisistat + Trametinib; first compound 1.265 µM
  relative viability: 0.365
Selisistat + Trametinib; first compound 4 µM
  relative viability: 0.35
Selisistat + Trametinib; first compound 12.65 µM
  relative viability: 0.311
Selisistat + Trametinib; first compound 40 µM
  relative viability: 0.341
Serdemetan + Navitoclax; first compound 0.04 µM
  relative viability: 1.3
Serdemetan + Navitoclax; first compound 0.1265 µM
  relative viability: 1.42
Serdemetan + Navitoclax; first compound 0.4 µM
  relative viability: 1.26
Serdemetan + Navitoclax; first compound 4 µM
  relative viability: 1.19
